Read-outs that look alike come from different tables or passages of the source.

Assay [1] concerns the target EGFR L858R/T790M/C797S (Homo sapiens, UniProt P00533, C797S/L858R/T790M). Kind of assay: Biochemical EGFR kinase inhibition assay (Lance Ultra TR-FRET), triple mutant L858R/T790M/C797S. In a few lines:
(§1)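 Step 1: compound in kinase buffer, 0.003–10 μM. Step 2: kinase reaction 1 h at room temperature. Step 4: TR-FRET read at 615/665 nm; IC50 calculated.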
In general terms: TR-FRET usually uses a lanthanide donor and a delayed reading to cut background.

Assay [2] addresses EGFR L858R/C797S (Homo sapiens, UniProt P00533, C797S/L858R). In words: Biochemical EGFR kinase inhibition assay (Lance Ultra TR-FRET), double mutant L858R/C797S. In a few lines: as §1
Assay [3] deals with EGFR wildtype (WT) (Homo sapiens, UniProt P00533). Kind of assay: Biochemical EGFR kinase inhibition assay (Lance Ultra TR-FRET), wildtype. In a few lines:
as §1

The target in assay [4] is EGFR Del19/T790M/C797S (Homo sapiens, UniProt P00533, C797S/DEL746-750/T790M). In words: Biochemical EGFR kinase inhibition assay (Lance Ultra TR-FRET), triple mutant del19/T790M/C797S. In a few lines: as §1
For assay [5], the target named is EGFR Del19/C797S (Homo sapiens, UniProt P00533, C797S/DEL746-750). In words: Biochemical EGFR kinase inhibition assay (Lance Ultra TR-FRET), double mutant del19/C797S. In a few lines:
as §1

Setting [6] is: ATP at Km, read-out: IC50 L858R/T790M/C797S (nM), Km ATP.
[7] abbreviates: IC50 L858R/T790M/C797S (nM), 100 μM ATP.
[8] abbreviates: ATP at Km, read-out: IC50 L858R/C797S (nM), Km ATP.
Where [9] appears, read: IC50 L858R/C797S (nM), 100 μM ATP.
Where [10] appears, read: ATP at Km, read-out: IC50 WT (nM), Km ATP.
Setting [11] is: ATP at Km, read-out: IC50 Del19/T790M/C797S (nM), Km ATP.
The mark [12] stands for this setting: IC50 Del19/T790M/C797S (nM), 100 μM ATP.
Setting [13] is: ATP at Km, read-out: IC50 Del19/C797S (nM), Km ATP.
Setting [14] is: IC50 Del19/C797S (nM), 100 μM ATP.
Where [15] appears, read: Km ATP, read-out: IC50 L858R/T790M/C797S (nM), Km ATP.
Setting [16] is: Km ATP, read-out: IC50 L858R/C797S (nM), Km ATP.
Setting [17] is: Km ATP, read-out: IC50 WT (nM), Km ATP.
[18] abbreviates: Km ATP, read-out: IC50 Del19/T790M/C797S (nM), Km ATP.
Setting [19] is: Km ATP, read-out: IC50 Del19/C797S (nM), Km ATP.
[20] abbreviates: Km ATP, read-out: IC50 L858R/T790M/C797S (nM) Km ATP.
[21] abbreviates: Km ATP, read-out: IC50 L858R/C797S (nM) Km ATP.
Setting [22] is: Km ATP, read-out: IC50 WT (nM) Km ATP.
Where [23] appears, read: Km ATP, read-out: IC50 Del19/T790M/C797S (nM) Km ATP.
Setting [24] is: Km ATP, read-out: IC50 Del19/C797S (nM) Km ATP.
Where [25] appears, read: read-out: IC50 L858R/T790M/C797S (nM), 100 μM ATP.
The mark [26] stands for this setting: read-out: IC50 L858R/C797S (nM), 100 μM ATP.
Where [27] appears, read: read-out: IC50 WT (nM), 100 μM ATP.
[28] abbreviates: read-out: IC50 Del19/T790M/C797S (nM), 100 μM ATP.
Where [29] appears, read: read-out: IC50 Del19/C797S (nM), 100 μM ATP.

In the case of `O=S(=O)(C1CC1)n1cc(-c2nccc(Nc3cc(N[C@H]4CC[C@@H](O)CC4)c(C#Cc4ccc(CN5CCOCC5)s4)cn3)n2)cn1` [Example 190, (1s,4s)-4-((2-((2-(1-(Cyclopropylsulfonyl)-1H-pyrazol-4-yl)pyrimidin-4-yl)amino)-5-((5-(morpholinomethyl)thiophen-2-yl)ethynyl)pyridin-4-yl)amino)cyclohexan-1-ol], the IC50 in assay [1] (setting [6]) is 1 nM; in assay [1] (setting [7]) it was 6.7 nM; in assay [2] (setting [8]) it was 8.9 nM; in assay [2] (setting [9]) it was 71.5 nM; in assay [3] (setting [10]), 19.7 nM; in assay [3] (IC50 WT (nM), 100 μM ATP), above 10000 nM. Moreover, the IC50 in assay [4] (setting [11]) is 1.8 nM; in assay [4] (setting [12]) it was 5.1 nM; in assay [5] (setting [13]) it was 3.3 nM; in assay [5] (setting [14]), 4.6 nM.

Take `CC1(CO)CCN(c2cc(Nc3ccnc(-c4cnn(S(=O)(=O)C5CC5)c4)n3)ncc2C#CC2CCS(=O)(=O)C2)CC1` (stereo not shown) [Example 437, 3-((6-((2-(1-(Cyclopropylsulfonyl)-1H-pyrazol-4-yl)pyrimidin-4-yl)amino)-4-(4-(hydroxymethyl)-4-methylpiperidin-1-yl)pyridin-3-yl)ethynyl)tetrahydrothiophene 1,1-dioxide]: the IC50 is 0.1 nM in assay [1] (setting [7]); 0.1 nM in assay [1] (setting [15]); 39.3 nM in assay [2] (setting [9]); 0.8 nM in assay [2] (setting [16]); above 10000 nM in assay [3] (IC50 WT (nM), 100 μM ATP); 3.7 nM in assay [3] (setting [17]). For the same compound, the IC50 in assay [4] (setting [12]) stood at 0.1 nM; in assay [4] (setting [18]) it was 0.1 nM; in assay [5] (setting [14]), 1.3 nM; in assay [5] (setting [19]), 0.6 nM.

With `CN(C)CCCn1cc(C#Cc2cnc(Nc3ccnc(-c4cnn(S(=O)(=O)C5CC5)c4)n3)cc2N2CCCC(CO)C2)cn1` (stereo not shown) [Example 122, (1-(2-((2-(1-(Cyclopropylsulfonyl)-1H-pyrazol-4-yl)pyrimidin-4-yl)amino)-5-((1-(3-(dimethylamino)propyl)-1H-pyrazol-4-yl)ethynyl)pyridin-4-yl)piperidin-3-yl)methanol], the IC50 amounted to 0.5 nM in assay [1] (setting [7]); 0.2 nM in assay [1] (setting [20]); 11.8 nM in assay [2] (setting [9]); 0.5 nM in assay [2] (setting [21]); 2780 nM in assay [3] (IC50 WT (nM), 100 μM ATP); 7.8 nM in assay [3] (setting [22]). Further, the IC50 in assay [4] (setting [12]) is 0.5 nM; in assay [4] (setting [23]), 0.4 nM; in assay [5] (setting [14]), 0.8 nM; in assay [5] (setting [24]) it was 0.6 nM.

On to “(1-(2-((2-(1-(Cyclopropylsulfonyl)-1H-pyrazol-4-yl)pyrimidin-4-yl)amino)-5-((5-((3,3-difluoroazetidin-1-yl)methyl)-1-(2,2-difluoroethyl)-1H-pyrrol-3-yl)ethynyl)pyridin-4-yl)-4-methylpiperidin-4-yl)methanol [Example 248]”, for which the IC50 stood at 11.4 nM in assay [1] (setting [25]); 16.6 nM in assay [2] (setting [8]); 39.4 nM in assay [2] (setting [26]); 30.1 nM in assay [3] (setting [10]); 6600 nM in assay [3] (setting [27]); 8.3 nM in assay [4] (setting [11]). The IC50 was determined as 13.8 nM in assay [4] (setting [28]), 9.9 nM in assay [5] (setting [13]) and 8.6 nM in assay [5] (setting [29]).

Turning to `CS(=O)(=O)N1CCC(C#Cc2cnc(Nc3ccnc(-c4cnn(S(=O)(=O)C5CC5)c4)n3)cc2NC2CCC(CO)CC2)C1` (stereo not shown) [Example 397, ((1s,4s)-4-((2-((2-(1-(Cyclopropylsulfonyl)-1H-pyrazol-4-yl)pyrimidin-4-yl)amino)-5-((1-(methylsulfonyl)pyrrolidin-3-yl)ethynyl)pyridin-4-yl)amino)cyclohexyl)methanol], the IC50 is 1.3 nM in assay [1] (setting [7]); 0.5 nM in assay [1] (setting [15]); 31.3 nM in assay [2] (setting [9]); 1.5 nM in assay [2] (setting [16]); above 10000 nM in assay [3] (IC50 WT (nM), 100 μM ATP); 16.9 nM in assay [3] (setting [17]). Besides, the IC50 in assay [4] (setting [12]) turned out to be 0.9 nM; in assay [4] (setting [18]), 1.5 nM; in assay [5] (setting [14]), 1.5 nM; in assay [5] (setting [19]), 0.7 nM.

Consider `CN1CCN(Cc2ccc(C#Cc3cnc(Nc4ccnc(-c5cnn(S(=O)(=O)C6CC6)c5)n4)cc3N[C@H]3CC[C@@H](CO)CC3)cc2)CC1` [Example 360, ((1s,4s)-4-((2-((2-(1-(Cyclopropylsulfonyl)-1H-pyrazol-4-yl)pyrimidin-4-yl)amino)-5-((4-((4-methylpiperazin-1-yl)methyl)phenyl)ethynyl)pyridin-4-yl)amino)cyclohexyl)methanol], for which the IC50 stood at 0.9 nM in assay [1] (setting [7]); 0.3 nM in assay [1] (setting [15]); 7.7 nM in assay [2] (setting [9]); 2.5 nM in assay [2] (setting [16]); 1130 nM in assay [3] (IC50 WT (nM), 100 μM ATP); 3.8 nM in assay [3] (setting [17]). The IC50 was 1.1 nM in assay [4] (setting [12]), 0.8 nM in assay [4] (setting [18]), 2.7 nM in assay [5] (setting [14]) and 2.3 nM in assay [5] (setting [19]).

In the case of `O=S(=O)(C1CC1)n1cc(-c2nccc(Nc3cc(N[C@H]4CC[C@@H](O)CC4)c(C#Cc4cccc(NCCN5CCOCC5)c4)cn3)n2)cn1` [Example 173, (1s,4s)-4-((2-((2-(1-(Cyclopropylsulfonyl)-1H-pyrazol-4-yl)pyrimidin-4-yl)amino)-5-((3-((2-morpholinoethyl)amino)phenyl)ethynyl)pyridin-4-yl)amino)cyclohexan-1-ol], the IC50 in assay [1] (setting [6]) was 1.3 nM; in assay [1] (setting [25]), 10.5 nM; in assay [2] (setting [8]), 7.8 nM; in assay [2] (setting [26]) it was 100 nM; in assay [3] (setting [10]), 22.9 nM; in assay [3] (setting [27]) it was above 10000 nM. In addition, the IC50 in assay [4] (setting [11]) turned out to be 2.9 nM; in assay [4] (setting [28]), 9.9 nM; in assay [5] (setting [13]), 6.2 nM; in assay [5] (setting [29]) it was 8.5 nM.

Take `CC1(CO)CCN(c2cc(Nc3ccnc(-c4cnn(S(=O)(=O)C5CC5)c4)n3)ncc2C#Cc2cnn(C(F)F)c2)CC1` [Example 305, (1-(2-((2-(1-(Cyclopropylsulfonyl)-1H-pyrazol-4-yl)pyrimidin-4-yl)amino)-5-((1-(difluoromethyl)-1H-pyrazol-4-yl)ethynyl)pyridin-4-yl)-4-methylpiperidin-4-yl)methanol]: the IC50 came to 0.5 nM in assay [1] (setting [6]); 0.9 nM in assay [1] (setting [7]); 0.8 nM in assay [2] (setting [8]); 5.4 nM in assay [2] (setting [9]); 1520 nM in assay [3] (IC50 WT (nM), 100 μM ATP); 1.3 nM in assay [4] (setting [11]). For the same compound, the IC50 in assay [4] (setting [12]) came to 1 nM; in assay [5] (setting [13]), 0.6 nM; in assay [5] (setting [14]), 2.4 nM.

With `O=S(=O)(C1CC1)n1cc(-c2nccc(Nc3cc(N[C@H]4CC[C@@H](O)CC4)c(C#Cc4cnn(C5CCOCC5)c4)cn3)n2)cn1` [Example 94, (1s,4s)-4-((2-((2-(1-(Cyclopropylsulfonyl)-1H-pyrazol-4-yl)pyrimidin-4-yl)amino)-5-((1-(tetrahydro-2H-pyran-4-yl)-1H-pyrazol-4-yl)ethynyl)pyridin-4-yl)amino)cyclohexan-1-ol], the IC50 was 3.6 nM in assay [1] (setting [7]); 1.4 nM in assay [1] (setting [20]); 30.5 nM in assay [2] (setting [9]); 4.3 nM in assay [2] (setting [21]); above 10000 nM in assay [3] (IC50 WT (nM), 100 μM ATP); 32.3 nM in assay [3] (setting [22]). Further, the IC50 in assay [4] (setting [12]) worked out at 2.1 nM; in assay [4] (setting [23]) it was 2 nM; in assay [5] (setting [14]) it was 8.8 nM; in assay [5] (setting [24]), 6.7 nM.

The record behind these values is patent US11981658B2, “Substituted aminopyridine compounds as EGFR inhibitors” (YUHAN CORPORATION, priority 2021, dated 2024).
